Results published in patent publication US20250213707A1, “COMPOUND FOR INCREASING EFFICACY OF ONCOLYTIC VIRUSES” (ABLEVIA BIOTECH GMBH, priority 2022, published 2025).

Test system: IgG from human donors (anti-AAV antibodies)
Assay: Screen for anti-AAV antibodies in human sera, 2452 linear 15-amino-acid AAV peptides on microarrays (Table 1)
Assay type: binding
Design: key to group I: X: the deduplicated aggregate of the respective top 10 peptide hits for each donor was compiled and designated as group I; key to group II: X: the deduplicated aggregate of the respective top 25 peptide hits for each donor was compiled and designated as group II; key to group III: X: the deduplicated aggregate of the respective top 50 peptide hits for each donor was compiled and designated as group III
Details: for group I: membership in deduplicated aggregate of top 10 peptide hits for each donor
Description: 2452 linear peptides derived from the sequences of 16 different AAVs and with a sequence length of 15 amino-acids each were synthesized.
Samples obtained from human donors were screened for antibodies against these AAV-derived peptides immobilized on microarrays. To this end, IgG was prepared from blood obtained from the human donors by protein G purification. Each IgG sample was incubated with the peptide microarrays and Ig binding signals were detected by fluorescence. All antibody binding signals to the peptides on the arrays were background subtracted and ranked for each sample and a deduplicated aggregate of the respective top 250 peptide hits for each donor with the corresponding protein sequence of origin (as obtained from UniProt or other sources) was compiled (designated as group IV). Further, the deduplicated aggregate of the respective top 50 peptide hits for each donor was compiled and designated as group III. Further, the deduplicated aggregate of the respective top 25 peptide hits for each donor was compiled and designated as group II. Finally, the deduplicated aggregate of the respective top 10 peptide hits for each donor was compiled and designated as group I.
Altogether, group I contains 110 distinct peptide hits (assigned to the corresponding AAV vectors in Table 1), group II contains 289 distinct peptide hits, group III contains 428 distinct peptide hits and group IV contains 1271 distinct peptide hits. Evidently, group I is a subset of group II which in turn is a subset of group III which in turn is a subset of group IV. Groups I-IV correspond to the top 4.4%, […], 17.5% and 51.8%, respectively, of all peptides screened.

[1] = X = peptide belongs to the deduplicated aggregate of the top 50 peptide hits for each donor, linear 15-amino-acid AAV peptides, IgG binding by fluorescence
[2] = human donor IgG binding to linear 15-amino-acid AAV peptides on microarray, fluorescence
[3] = membership in deduplicated aggregate of top 25 peptide hits for each donor, human donor IgG binding to linear 15-amino-acid AAV peptides on microarray, fluorescence
[4] = membership in deduplicated aggregate of top 50 peptide hits for each donor, human donor IgG binding to linear 15-amino-acid AAV peptides on microarray, fluorescence
[5] = X = peptide in the deduplicated aggregate of the top 50 peptide hits for each donor (top 17.5% of all peptides screened), linear 15-amino-acid AAV peptides on microarrays, human donor IgG, fluorescence
[6] = X = peptide belongs to the deduplicated aggregate of the top 25 peptide hits for each donor, linear 15-amino-acid AAV peptides, IgG binding by fluorescence

With “380 (SSYAHSQSLDRLMNP; REGION 1..15: note = peptide derived from viral capsid protein) [compound 380]” the “group III” value [1] was “X”.
“336 (VTQNDGTTTIANNLT; REGION 1..15: note = peptide derived from viral capsid protein) [compound 336]” was tested, and the “group III” value [1] was “X”.
With “KNTPVPADPPTTFS (REGION 1..14: note = peptide derived from viral capsid protein) [SEQ ID NO: 1953]” the “group I” value [2] was “×”, the “group II” value [3] was “X” and the “group III” value [4] was “X”.
In the case of “QLPYVLGSAHQGCL (REGION 1..14: note = peptide derived from viral capsid protein) [SEQ ID NO: 1962]”, the “group I” value [2] is reported as “X”, the “group II” value [3] is reported as “X” and the “group III” value [4] is reported as “X”.
For “320 (GPPPPKPAERHKDDS; REGION 1..15: note = peptide derived from viral capsid protein) [compound 320]”, the “group III” value [1] was “X”.
“346 (TVAVNLQSSSTDPAT; REGION 1..15: note = peptide derived from viral capsid protein) [compound 346]” was tested, and the “group III” value [1] was “X”.
In the case of “313 (QGCLPPFPADVFMVP; REGION 1..15: note = peptide derived from viral capsid protein) [compound 313]”, the “group III” value [1] is reported as “X”.
DAAALEHDKAYDQQ [SEQ ID NO: 1940] was tested, and the “group I” value [2] was “X”, the “group II” value [3] was “X” and the “group III” value [4] was “X”.
For QQRVSTTLSQNNNS [SEQ ID NO: 1963], the “group I” value [2] was “X”, the “group II” value [3] was “X” and the “group III” value [4] was “X”.
For “343 (TFEDVPFHSSYAHSQ; REGION 1..15: note = peptide derived from viral capsid protein) [compound 343]”, the “group III” value [1] was “X”.
In the case of “341 (TFSYTFEDVPFHSSY; REGION 1..15: note = peptide derived from viral capsid protein) [compound 341]”, the “group III” value [1] is reported as “X”.
With “322 (KSVNVDFTVDTNGVY; REGION 1..15: note = peptide derived from viral capsid protein) [compound 322]” the “group III” value [1] was “X”.
With “LQQQNAAPIVGAVN (REGION 1..14: note = peptide derived from viral capsid protein) [SEQ ID NO: 1955]” the “group I” value [2] was “X”, the “group II” value [3] was “X” and the “group III” value [4] was “X”.
For “459 (YSTGQVTVEMEWELK; REGION 1..15: note = peptide derived from viral capsid protein) [compound 459]”, the “group III” value [5] was “X”.
With “DSESVPDPQPIGEP (REGION 1..14: note = peptide derived from viral capsid protein) [SEQ ID NO: 1942]” the “group I” value [2] was “X”, the “group II” value [3] was “X” and the “group III” value [4] was “X”.
For “369 (EYQLPYVLGSAHQGC; REGION 1..15: note = peptide derived from viral capsid protein) [compound 369]”, the “group III” value [1] was “X”.
In the case of “447 (YNNHLYKQISNGTSG; REGION 1..15: note = peptide derived from viral capsid protein) [compound 447]”, the “group III” value [5] is reported as “X”.
“349 (GSQAVGRSSFYCLEY; REGION 1..15: note = peptide derived from viral capsid protein) [compound 349]” was tested, and the “group III” value [1] was “X”.
In the case of “292 (HDDEERFFPSSGVLM; REGION 1..15: note = peptide derived from viral capsid protein) [compound 292]”, the “group III” value [1] is reported as “X”.
In the case of “SQSLDRLMNPLIDQ (REGION 1..14: note = peptide derived from viral capsid protein) [SEQ ID NO: 1966]”, the “group I” value [2] is reported as “X”, the “group II” value [3] is reported as “X” and the “group III” value [4] is reported as “X”.
FQERLQEDTSFGGN [SEQ ID NO: 1949] was tested, and the “group I” value [2] was “X”, the “group II” value [3] was “X” and the “group III” value [4] was “X”.
In the case of “438 (TTGGTANTQTLGFSQ; REGION 1..15: note = peptide derived from viral capsid protein) [compound 438]”, the “group III” value [5] is reported as “X”.
In the case of “293 (SQMLRTGNFEFSYFE; REGION 1..15: note = peptide derived from viral capsid protein) [compound 293]”, the “group III” value [1] is reported as “X”.
For “282 (FITQYSTGQVTVEME; REGION 1..15: note = peptide derived from viral capsid protein) [compound 282]”, the “group II” value [6] was “X” and the “group III” value [1] was “X”.
For “424 (ENSKRWNPEIQYTSN; REGION 1..15: note = peptide derived from viral capsid protein) [compound 424]”, the “group III” value [5] was “X”.
With PGAPKPKANQQKQD [SEQ ID NO: 1958] the “group I” value [2] was “X”, the “group II” value [3] was “X” and the “group III” value [4] was “X”.
With “476 (PSTSSDAEAGPSGSQ; REGION 1..15: note = peptide derived from viral capsid protein) [compound 476]” the “group III” value [5] was “X”.
In the case of PVPADPPTTESQAK [SEQ ID NO: 1931], the “group I” value [2] is reported as “X”, the “group II” value [3] is reported as “X” and the “group III” value [4] is reported as “X”.
With “PWGYFDFNRFHCHF (REGION 1..14: note = peptide derived from viral capsid protein) [SEQ ID NO: 1961]” the “group I” value [2] was “X”, the “group II” value [3] was “X” and the “group III” value [4] was “X”.
For “466 (ELKKENSKRWNPEIQ; REGION 1..15: note = peptide derived from viral capsid protein) [compound 466]”, the “group III” value [5] was “X”.
“361 (YSTPWGYFDFNRFHC; REGION 1..15: note = peptide derived from viral capsid protein) [compound 361]” was tested, and the “group III” value [1] was “X”.
In the case of “287 (AQPASSLGADTMSAG; REGION 1..15: note = peptide derived from viral capsid protein) [compound 287]”, the “group II” value [6] is reported as “X” and the “group III” value [1] is reported as “X”.
With “330 (DSGDNPYLKYNHADA; REGION 1..15: note = peptide derived from viral capsid protein) [compound 330]” the “group III” value [1] was “X”.
“432 (GSSSGNWHCDSTWLG; REGION 1..15: note = peptide derived from viral capsid protein) [compound 432]” was tested, and the “group III” value [5] was “X”.
For “312 (NEADAAALEHDKAYD; REGION 1..15: note = peptide derived from viral capsid protein) [compound 312]”, the “group III” value [1] was “X”.
For “370 (FITQYSTGQVSVEIE; REGION 1..15: note = peptide derived from viral capsid protein) [compound 370]”, the “group III” value [1] was “X”.
For “357 (SLDRLMNPLIDQYLY; REGION 1..15: note = peptide derived from viral capsid protein) [compound 357]”, the “group III” value [1] was “X”.
With “DKAYDQQLQAGDNP (REGION 1..14: note = peptide derived from viral capsid protein) [SEQ ID NO: 1928]” the “group I” value [2] was “X”, the “group II” value [3] was “X” and the “group III” value [4] was “X”.
In the case of “470 (ANNLTSTVQVFTDDD; REGION 1..15: note = peptide derived from viral capsid protein) [compound 470]”, the “group III” value [5] is reported as “X”.
In the case of ADPPTTFSQAKLAS [SEQ ID NO: 1939], the “group I” value [2] is reported as “X”, the “group II” value [3] is reported as “X” and the “group III” value [4] is reported as “X”.
“300 (TFNQAKLASFITQYS; REGION 1..15: note = peptide derived from viral capsid protein) [compound 300]” was tested, and the “group III” value [1] was “X”.
In the case of “338 (PLGLVEEPVKTAPGK; REGION 1..15: note = peptide derived from viral capsid protein) [compound 338]”, the “group III” value [1] is reported as “X”.
For “297 (DSLVNPGVAMATHDD; REGION 1..15: note = peptide derived from viral capsid protein) [compound 297]”, the “group III” value [1] was “X”.
“479 (DSTTTIANNLTSTVQ; REGION 1..15: note = peptide derived from viral capsid protein) [compound 479]” was tested, and the “group III” value [5] was “X”.
With “356 (YSTGQVSVEIEWELQ; REGION 1..15: note = peptide derived from viral capsid protein) [compound 356]” the “group III” value [1] was “X”.
For “319 (EQYGSVSTNLQRGNR; REGION 1..15: note = peptide derived from viral capsid protein) [compound 319]”, the “group III” value [1] was “X”.
With PPQILIKNTPVPAD [SEQ ID NO: 1959] the “group I” value [2] was “X”, the “group II” value [3] was “X” and the “group III” value [4] was “X”.
